Assay results: publication PMC5764437, “Discovery of novel, orally bioavailable, antileishmanial compounds using phenotypic screening” (PLoS Neglected Tropical Diseases, 2017)
≈ marks a conversion by molar mass, not a printed value. Like-named read-outs stand apart in the source and are kept apart here.

Experiments:
[1] = test system: Trypanosoma cruzi CL Brener epimastigotes; experiment: Growth inhibition of Trypanosoma cruzi epimastigotes (SYBR Green); format: cell-based; settings: Trypanosoma cruzi; 72 h, 10 μM to 1 nM; read-out: T. cruzi epimastigotes EC50
Description: Trypanosoma cruzi CL Brener epimastigotes were obtained from Dr. Fred Buckner of the Department of Medicine at the University of Washington. T. cruzi epimastigotes were grown in liver infusion tryptose medium and seeded in a 96-well plate at 10^5 epimastigotes per well in 100 μl medium. For each well, 1 μl of compound in DMSO at 100X the desired final concentration was added. Epimastigotes were exposed to a range of compound concentrations from 10 μM to 1 nM to determine EC50. Plates were incubated at 26°C for 72 h, then 10 μl 50X SYBR Green in 1% Triton X-100 was added to each well followed by incubation with shaking at room temperature for 30 minutes. Fluorescence was read (excitation 485nm, emission 535nm) with the Victor^2 multiplate reader (PerkinElmer). All data processing and visualization were performed using GraphPad Prism 6 software.

[2] = test system: bloodstream form Lister 427 T. brucei; experiment: Growth inhibition of T. brucei bloodstream forms (SYBR Green I); format: cell-based; settings: bloodstream form, mean ± standard deviation, n = 2, read-out: T. brucei EC50
Description: (§1) L. mexicana (MNYZ/BZ/62/M379) or L. donovani (LdBob strain) parasites expressing the Renilla luciferase gene from a rRNA gene locus were used to infect J774A.1 macrophages. Growth of intracellular amastigotes was measured using a luminescence assay, as detailed previously. The growth inhibitor activities of compounds were tested against bloodstream form Lister 427 T. brucei in 96-well plates containing 1 X 10^5 parasites per well in 0.2 ml HMI-11 medium (Gibco/Thermo Fisher). Compounds (2 μl volumes in DMSO) were added to the parasites using serial 3-fold dilutions to cover a range of concentrations from about 10 μM to 1 nM. After 48 h incubation at 37°C under a humidified 5% CO2 atmosphere, 10 μl of 10% Triton X-100 and 100 X stock SYBR Green I (Sigma-Aldrich) in PBS was added and florescence measured (excitation 497 nm; emission 520 nm) after 1 h incubation in the dark using a Spectra Max Gemini XPS fluorimeter (Molecular Devices). Data were log transformed and EC50 values were determined using GraphPad Prism 6 (GraphPad Software). In the absence of growth inhibiting compounds, the parasites grew from an initial density of 5 X 10^5 cells/mL to ~3 X 10^6 cells/mL.

[3] = test system: L. mexicana intracellular amastigotes; experiment: Growth inhibition of intracellular amastigotes in J774A.1 macrophages (Renilla luciferase luminescence); format: cell-based; settings: Leishmania mexicana, J774.A1; intracellular amastigotes in J774A.1 macrophages; mean ± standard deviation, n = 2; read-out: L. mexicana EC50
Description: as §1
[…]. These were chosen as candidates for further study. From these 230 compounds, we were able to repurchase 113 from commercial vendors. These compounds were characterized for purity by ultra-performance liquid chromatography using ultraviolet spectroscopy and evaporative light scattering detection and identity by mass spectrometry. All validated compounds were profiled for activity against intracellular amastigotes, the disease-causing stage of the life cycle. Intracellular amastigote activity was determined using a strain of L. mexicana in which the Renilla luciferase gene was integrated into the rRNA locus, allowing robust expression for measuring amastigote growth within cultured macrophages. All 113 compounds were applied at 1 μM concentration for 96 h to J774A.1 macrophages infected with L. mexicana luciferase-expressing parasites. […].
Next, we generated dose-response curves for these 55 compounds against intracellular amastigotes and independently against J774A.1 macrophages to establish the relative potency of each compound against the pathogen and its host cell. […]. The nine remaining compounds, each representing a unique chemical scaffold (compounds 1–9, Fig 3), were designated top hits (Fig 1).

[4] = test system: L. donovani intracellular amastigotes; experiment: as above; format: cell-based; settings: Leishmania donovani, J774.A1; intracellular amastigotes in J774A.1 macrophages; mean ± standard deviation, n = 2; read-out: L. donovani EC50
Description: as §1

J774A.1 macrophages = experiment: Cytotoxicity to J774A.1 macrophages (dose-response); format: cell-based; settings: Mus musculus, J774.A1; host macrophage; tested up to 10 μM; mean ± standard deviation, n = 2; read-out: J774A.1 EC50
Description: Cytotoxicity of compounds to J774.A1 macrophages was determined by dose-response curves as described previously. In the absence of growth inhibitors or DMSO, the macrophages increased in number ~6-fold over 96 h in Minimum Essential Medium, employed for both macrophage infections and the toxicity assays.

[5] = Liver microsomal stability, mouse; settings: female, microsomes, pH 7.4
Description: (§2) One part of 10 mM DMSO compound stock was mixed with 4 parts of acetonitrile to make 2 mM diluted compound stock in DMSO and acetonitrile. 29.1 µL diluted compound stock was added to 2.3 mL liver microsomal solution and vortexed to make microsomal solution with compound. […] For the 0 h time point, 450 µL pre-cooled (4 °C) internal standard (10 µM warfarin in methanol) was added to the first three columns before the reaction was initiated. 1.25 ml of microsome assay solution A (Fisher Scientific, #NC9255727) was combined with 0.25 ml of solution B (Fisher Scientific, #NC9016235) in 3.5 ml of potassium phosphate buffer (0.1 M, pH 7.4). 45 µL of this A+B solution was added to each well of the 96-well storage plate (reaction plate). Liquid in the first 3 columns was moved to another storage plate (quenched plate). The reaction plate was then sealed, incubated at 37 °C, and shaken at a speed of 60 rpm. Time points (0.5 h, 1 h, 2 h) were taken. At each time point, 450 µL pre-cooled internal standard was added to 3 rows in the reaction plate, and the liquid was then transferred to the quenched plate. […] 200 µL supernatant was transferred to a 96-well plate and analyzed by ultra-performance liquid chromatography-mass spectrometry (UPLC-MS) (Waters Inc.). The compounds and internal standard were detected by selected ion recording (SIR).

[6] = Liver microsomal stability, human; settings: both, microsomes, pH 7.4
Description: as §2

in vitro = settings: pH 1
Description: Compound stocks were 10 mM in DMSO. The internal standard was 5 µM warfarin in methanol. […] 1 ml SGF was added to a 1.1 ml 96-well storage plate and mixed well with 10 µl compound stock. The plate was then incubated at 37 °C and shaken at 60 rpm. […] At each time point, 100 µl was removed to a 1 ml storage plate and 300 µl internal standard was added to quench the reaction. […] The compound was detected by SIR and quantification was based on peak area of test compound and the internal standard.

[7] = Parallel Artificial Membrane Permeability Assay (PAMPA); settings: pH 7.4
Description: Parallel Artificial Membrane Permeability Assay (PAMPA) was conducted by Biomek FX lab automation workstation (Beckman Coulter, Inc.) and PAMPA evolution 96 command software (pION Inc.). A 3 µL aliquot of […] test compound stock in DMSO was mixed with 597 µL of isotonic citrate phosphate buffered saline to make diluted test compound. Diluted test compound (150 µL) was transferred to a UV plate (pION Inc.) and the UV spectrum was read as the reference plate. The membrane on a pre-loaded PAMPA sandwich (pION Inc.) was painted with 4 µL GIT lipid (pION Inc.). The acceptor chamber was then filled with 200 µL acceptor solution buffer, (pION Inc.), and the donor chamber was filled with 180 µL diluted test compound. The PAMPA sandwich was assembled, placed on the Gut-Box and stirred for 30 min. The Aqueous Boundary Layer was set to 40 µm for stirring. The UV spectrum (250-500 nm) of the donor and the acceptor solutions were recorded. The permeability coefficient was calculated using PAMPA Evolution 96 Command software (pION Inc.) based on the AUC of the reference plate, the donor plate and the acceptor plate. All compounds were tested in triplicate.

[8] = Liver microsomal stability, rat; settings: microsomes, pH 7.4
Description: as §2

[9] = Solubility in aqueous buffer; format: physicochemical; settings: pH 7.4, aqueous buffer, kinetic from dmso stock
Description: Solubility assays were carried out on a Biomek FX lab automation workstation (Beckman Coulter, Inc., Fullerton, CA) using μSOL Evolution software (pION Inc.). Compound stock (10 mM in DMSO, 10 μL) was added to 1-propanol (190 μL) to make a reference stock plate. Reference stock solution (5 μL) was mixed with 1-propanol (70 μL) and citrate phosphate buffered saline (pH 7, 75 μL) to make the reference plate which was then measured with UV detection. Test compound stock (10 mM, 6 μL) was added to citrate phosphate buffered saline (594 μL) in a 96-well storage plate and mixed. […] The suspension was then filtered through a 96-well filter plate (pION Inc.). Filtrate (75 μL) was mixed with 1-propanol (75 μL) to make the sample plate, and the UV spectrum (250 nm −500 nm) of the sample plate was recorded. Calculation of solubility was carried out using μSOL Evolution software based on the AUC of the UV spectrum of the sample plate and the reference plate. All compounds were tested in triplicate.

[10] = Caco-2 permeability assay; format: in vitro ADME; settings: human, pH 7.4; for Papp A→B at 2 h, 10 μmol/L / Papp B→A at 2 h, 10 μmol/L: mean ± standard deviation of three runs; for Papp A→B at 2 h, 10 μmol/L: read-out: Caco-2 (A→B) permeability coefficient; for Papp B→A at 2 h, 10 μmol/L: read-out: Caco-2 (B→A) permeability coefficient
L. mexicana = experiment: Efficacy in murine model of cutaneous leishmaniasis (footpad lesion size); format: in vivo; settings: BALB/c mice infected with L. mexicana; 20 mg/kg daily oral gavage for 10 days from week 4; measured weeks 4–12
Description: Female BALB/c mice (~20 g) were injected in one hind footpad with 1 x 10^6 stationary phase promastigotes suspended in 25 μl of phosphate buffered saline (PBS). Four weeks after infection, when a small cutaneous lesion was visible in the injected footpad, cohorts of five mice were treated with either compound or vehicle alone (90 μl), delivered daily for 10 consecutive days by oral gavage using a 20-gauge x 30 mm disposable plastic feeding needle. Vehicle consisted of 10/10/40/39 mixture of ethanol/(PG)/PEG400/PBS plus 1% (weight/volume) 2HβCD (PG is propylene glycol, PEG is polyethylene glycol, 2HβCD is 2-hydroxy-β-cyclodextran). The daily dose for each compound was: compound 4, 25 mg/kg; compound 5, 30 mg/kg; miltefosine, 20 mg/kg. The width of the footpad (top to bottom) was measured with calipers before injection of parasites (day 0) and weekly from weeks 4–12. The width of the uninfected contralateral footpad was also measured each week, and its width was subtracted from that of the infected footpad to determine lesion size.

SMILES | EC50 [1] [nM] | EC50 [3] [nM] | EC50 [4] [nM] | EC50 (J774A.1 macrophages) [nM] | half-life at 20 μM [5] [h] | half-life at 20 μM [6] [h] | half-life at 99 µM (in vitro; simulated gi fluid) [h] | half-life at 20 μM [8] [h] | solubility at 18 h [9] [µM] | Papp A→B at 2 h, 10 μmol/L ([10]; Caco-2) [×10⁻⁶ cm/s] | Papp B→A at 2 h, 10 μmol/L ([10]; Caco-2) [×10⁻⁶ cm/s] | further results
Cc1ccc(-c2cc3c(c(OCC4CCCN(C)C4)c2)OCCN(C(=O)Cc2c(C)noc2C)C3)s1 (stereo not shown) [Compound 8] | 330 | 23 ± 18 | 1.1 ± 0.8 | 2200 ± 1400 | – | – | – | – | – | – | – | EC50 ([2]; Trypanosoma brucei): 300 ± 80 nM; EC50 [2]: < 300 nM
Oc1c(C(Nc2ccccn2)c2cccc(Cl)c2Cl)ccc2cccnc12 (stereo not shown) [Compound 9] | 2100 ± 70 | 100 ± 10 | 15 ± 9 | 9000 ± 6000 | – | – | – | – | – | – | – | –
CCCSc1ccc2nc(NC(=O)OC)[nH]c2c1 [albendazole] | – | – | – | – | 0.7 | > 4 | > 24 | 1.62 | 3.8 (≈ 1.01 µg/mL) | – | – | Papp at 30 min, 0.05 µM [7]: 204 ×10⁻⁶ cm/s
NC(=O)N1c2ccccc2C=Cc2ccccc21 [carbamazepine] | – | – | – | – | – | – | – | – | – | 71.8 ± 1.2 | 56.5 ± 3.2 | half-life at 20 μM ([5]; mouse): > 4 h; half-life at 20 μM ([6]; human): > 4 h; efflux ratio at 2 h, 10 μmol/L ([10]; Caco-2, pH 7.4, Papp B→A / Papp A→B): 0.79; half-life at 99 µM (in vitro; simulated gastric fluid with pepsin): > 24 h; Papp at 30 min, 0.05 µM ([7]; PAMPA): 95.6 ×10⁻⁶ cm/s; half-life at 20 μM ([8]; rat): > 4 h; solubility at 18 h ([9]; citrate phosphate buffered saline): 82.2 µM (≈ 19.4 µg/mL)
C[C@H]1O[C@@H](O[C@H]2[C@@H](O)C[C@H](O[C@H]3[C@@H](O)C[C@H](O[C@H]4CC[C@@]5(C)[C@H](CC[C@@H]6[C@@H]5C[C@@H](O)[C@]5(C)[C@@H](C7=CC(=O)OC7)CC[C@]65O)C4)O[C@@H]3C)O[C@@H]2C)C[C@H](O)[C@@H]1O [digoxin] | – | – | – | – | > 4 | > 4 | > 24 | > 4 | 80.3 (≈ 62.7 µg/mL) | 4.61 ± 0.46 | 27.1 ± 2.1 | efflux ratio at 2 h, 10 μmol/L ([10]; Caco-2, Papp B→A / Papp A→B): 5.87
CCCCCCCCCCCCCCCCOP(=O)([O-])OCC[N+](C)(C)C [miltefosine, reference compound] | – | – | – | – | – | – | – | – | – | – | – | Cutaneous lesion size (footpad width) (L. mexicana): reduced lesion size from the initial dimension
